These results are taken from patent US12466821B2 (Novartis AG, priority 2018, dated 2025).

Each structure is given as a SMILES string.

Assay [1] has as its system Luciferase-encoding HCMV, AD169 strain. The assay is described as follows: CMV Luciferase assay (cellular herpesvirus replication). In kind it is cell-based. To be noted: Human betaherpesvirus 5, AD169, read-out: CMV-Luc Cellular EC50. The procedure: For all viral assays, 10 mM DMSO stock compound solutions were serially diluted in DMSO at 3.16 fold dilutions in 96-well clear round bottom plates. Compounds were then diluted in assay media at 1:20 and subsequently 10 μL of these dilutions were added to cells for final compound concentrations ranging either from 0.0159 μM to 50 μM in 0.5% DMSO/assay media, or from 0.00318 to 10 μM in 0.5% DMSO/assay media.
The assay uses a Luciferase-encoding HCMV. Luciferase is expressed under the control of a late viral gene (pp28) promoter in the AD169 strain, so that expression of the reporter is dependent on viral DNA replication. Compounds that affect any stage from viral entry to DNA replication result in a change in luciferase levels.
Viral replication in the presence or absence of compounds was measured by luciferase activity according to the following procedure: Neo-natal normal human dermal fibroblast cells (NN-NHDF, from ATCC cat #201-010) were seeded at 9,000 cells/well in 96-well white solid bottom plate at 80 uL/well in assay media: 2% FBS, 4 mM GlutaMax® (Invitrogen cat #35050) in DMEM/high glucose/no glutamine/no phenol red media (Invitrogen cat #31053). After 2 hrs at 37° C., 10 uL of compound diluted in assay media or 5% DMSO (final 0.5% DMSO/well) was added and the plates returned to 37° C. One hour later, 10 uL of virus diluted in assay media was added at a final Multiplicity of infection (MOI) of 1. Plates were incubated at 37° C. for 72 hrs. At 72 hours post-infection (hpi), plates were equilibrated to room temperature. After 25 min, 100 uL Renilla-Glo® Luciferase Assay Reagent (Promega cat # E2750) was added to each well and incubated for 10 min. Plates were covered to protect from light. Luminescence was measured on the PHERAstar FS®.
The following controls were included in the data analysis: No virus, no compound (0.5% DMSO)=IC (maximal inhibitory control); Virus, no compound (0.5% DMSO)=NC (neutral control). Data were analyzed using an internal Novartis software (Helios). The means of the controls (NC, IC) were used to normalize the results to a % scale using the formula: % Control=100−(100*(Sample value−NC)/(IC−NC)).
For each compound, the software derived an EC50 using a 4-parameter logistical model.

The target in assay [2] is human HSV DNA polymerase UL30 (Human herpesvirus 1 (strain 17) (HHV-1) (Human herpes simplex virus 1), UniProt P04293). The assay is described as follows: HSV polymerase biochemical assay (molecular beacon-based). As for the experimental part: (§1) Both human CMV DNA polymerase UL54 and human HSV DNA polymerase UL30 were produced as N-terminal MBP fusion of the full length, wild type recombinant proteins in order to enhance soluble expression in insect cell expression system. The proteins were expressed in sf9 insect cells via baculovirus transduction and cells were harvested after 48 hours. The soluble proteins were purified using the standard Ni-IMAC purification strategy via the N-terminal hexa-Histidine tag, followed by heparin affinity chromatography. Both of the final MBP fusion proteins were more than 90% pure and the yield of UL54 was up to 1.8 mg per liter culture while UL30 was up to 15 mg per liter culture. All purification steps were performed on ice, with buffers chilled on ice and FPLC fraction collectors set at 6° C. […] UL30 protein was stored in buffer containing 20 mM HEPES, pH7.0, 420 mM NaCl, 20% glycerol, 6 mM Imidazole, and 0.8 mM DTT at−80° C.
(§2) DNA polymerase activity was measured using a molecular beacon-based assay, as described in Ma et. al.
(§3) 100 pM CMV polymerase or 625 pM HSV polymerase was added to a buffer containing 20 mM Tris, pH=7.5, 100 mM NaCl, 10 mM MgCl2, 0.01% Tween-20, 0.5 mM EDTA, 10% Sucrose and 1 mM DTT. The inhibitor was pre-incubated with the polymerase for 30 minutes at room temperature. Reactions were initiated by the addition of a mixture containing 1.25 uM dATP, 1.25 uM dCTP, 1.25 uM dTTP, 1.25 uM dGTP, 200 nM Primer B (5′-GAC GGG AAG-3′5′-GAC GGG AAG-3′) and 100 nM molecular beacon (5′-5,6-FAM-CCTCTCCGTGTCTTGTACTTCCCGTCAGAGAGG-BHQ1-3′). For human CMV polymerase the reactions were incubated for 60 minutes at room temperature. For HSV polymerase the reactions were incubated for 20 minutes at room temperature. The reactions were then read on a Perkin-Elmer EnVision 2101 reader (fluorescence) using an excitation of 480 nm and emission of 535 nm. 1050s were determined using an internal Novartis software (Helios).
as §3, with “nm.” for “nm. 1050s were determined using an internal Novartis software (Helios).”

In assay [3] the target is human CMV DNA polymerase UL54 (Human cytomegalovirus (strain AD169) (HHV-5) (Human herpesvirus 5), UniProt P08546). Description: CMV polymerase biochemical assay (molecular beacon-based). As for the experimental part: as §1, §2, §3
as §3, with “nm.” for “nm. 1050s were determined using an internal Novartis software (Helios).”

Turning to `C[C@H](CCO)S(=O)(=O)C1(CN2CCn3c(ccc(C(=O)NCc4ccc(Cl)cc4)c3=O)C2=O)CC1` (single isomer, unassigned) [Example 6, N-(4-chlorobenzyl)-2-((1-((4-hydroxybutan-2-yl)sulfonyl)cyclopropyl)methyl)-1,6-dioxo-2,3,4,6-tetrahydro-1H-pyrido[1,2-a]pyrazine-7-carboxamide], the EC50 in assay [1] was determined as 0.0928 µM. Also, the 50% inhibitory concentration (IC50) was determined as 0.0548 µM in assay [2] and 0.0024 µM in assay [3].
Regarding `C[C@@H](CCO)S(=O)(=O)C1(CN2CCn3c(ccc(C(=O)NCc4ccc(Cl)cc4)c3=O)C2=O)CC1` (single isomer, unassigned) [Example 7, N-(4-chlorobenzyl)-2-((1-((4-hydroxybutan-2-yl)sulfonyl)cyclopropyl)methyl)-1,6-dioxo-2,3,4,6-tetrahydro-1H-pyrido[1,2-a]pyrazine-7-carboxamide], the EC50 in assay [1] was found to be 0.0328 µM. Moreover, the IC50 worked out at 0.0356 µM in assay [2] and 0.001 µM in assay [3].
Take `C[C@@H](CCO)S(=O)(=O)C1(CN2CCn3c(ccc(C(=O)NCc4ccc(C#N)cc4)c3=O)C2=O)CC1` (single isomer, unassigned) [Example 8, N-(4-cyanobenzyl)-2-((1-((4-hydroxybutan-2-yl)sulfonyl)cyclopropyl)methyl)-1,6-dioxo-2,3,4,6-tetrahydro-1H-pyrido[1,2-a]pyrazine-7-carboxamide]: in assay [1], the EC50 was 0.784 µM. The IC50 was 0.111 µM in assay [2] and 0.0046 µM in assay [3].
The like results for `C[C@H](CCO)S(=O)(=O)C1(CN2CCn3c(ccc(C(=O)NCc4ccc(C#N)cc4)c3=O)C2=O)CC1` (single isomer, unassigned) [Example 9, N-(4-cyanobenzyl)-2-((1-((4-hydroxybutan-2-yl)sulfonyl)cyclopropyl)methyl)-1,6-dioxo-2,3,4,6-tetrahydro-1H-pyrido[1,2-a]pyrazine-7-carboxamide] were, in that order, 0.167 µM, 0.0738 µM and 0.0017 µM.
As for `C[S@@+]([O-])C1(CN2CCn3c(ccc(C(=O)NCc4ccc(Cl)cc4)c3=O)C2=O)CC1` (single isomer, unassigned) [Example 67-2, N-(4-chlorobenzyl)-2-((1-(methylsulfinyl)cyclopropyl)methyl)-1,6-dioxo-2,3,4,6-tetrahydro-1H-pyrido[1,2-a]pyrazine-7-carboxamide], in assay [1], the EC50 stood at 0.478 µM. The IC50 in assay [2] is 1.12 µM; in assay [3], 0.0358 µM.
On the same counts, the results for `C[S@+]([O-])C1(CN2CCn3c(ccc(C(=O)NCc4ccc(Cl)cc4)c3=O)C2=O)CC1` (single isomer, unassigned) [Example 67-3, N-(4-chlorobenzyl)-2-((1-(methylsulfinyl)cyclopropyl)methyl)-1,6-dioxo-2,3,4,6-tetrahydro-1H-pyrido[1,2-a]pyrazine-7-carboxamide] are 7.25 µM, 13.1 µM and 0.292 µM.
On the same counts, the results for `C[S@@](=N)(=O)C1(CN2CCn3c(ccc(C(=O)NCc4ccc(Cl)cc4)c3=O)C2=O)CC1` (single isomer, unassigned) [Example 96-1] are 0.244 µM, 0.372 µM and 0.0126 µM.
On to `C[S@](=N)(=O)C1(CN2CCn3c(ccc(C(=O)NCc4ccc(Cl)cc4)c3=O)C2=O)CC1` (single isomer, unassigned) [Example 96-2], for which the EC50 in assay [1] was 0.847 µM. For the same compound, the values for the half-maximal inhibitory concentration (IC50) in assay [2] and in assay [3] were 1.92 µM and 0.0665 µM, respectively.
The like results for `N#Cc1ccc(CNC(=O)c2ccc3n(c2=O)CCN(CC2(S(=O)(=O)[C@H]4CC4(F)F)CC2)C3=O)cc1` (single isomer, unassigned) [Example 100-1] were, in that order, 0.0936 µM, 0.0482 µM and 0.0014 µM.
With `CC(CCO)S(=O)(=O)C1(CN2CCn3c(ccc(C(=O)NCc4ccc(Cl)cc4)c3=O)C2=O)CC1` (centres unmarked) [Example 4, N-(4-chlorobenzyl)-2-((1-((4-hydroxybutan-2-yl)sulfonyl)cyclopropyl)methyl)-1,6-dioxo-2,3,4,6-tetrahydro-1H-pyrido[1,2-a]pyrazine-7-carboxamide], the EC50 in assay [1] came out at 0.0404 µM. This compound showed an IC50 in assay [3] of 0.0004 µM.
`CCN1CCn2c(ccc(C(=O)NCc3ccc(Cl)cc3)c2=O)C1=O` [Example 113, N-(4-chlorobenzyl)-2-ethyl-1,6-dioxo-2,3,4,6-tetrahydro-1H-pyrido[1,2-a]pyrazine-7-carboxamide]: the values for the concentration for half-maximal inhibition (IC50) in assay [2] and in assay [3] were 23.6 µM and 3.13 µM, respectively.
The like results for `CN1CCn2c(ccc(C(=O)NCc3ccc(Cl)cc3)c2=O)C1=O` [Example 114, N-(4-chlorobenzyl)-2-methyl-1,6-dioxo-2,3,4,6-tetrahydro-1H-pyrido[1,2-a]pyrazine-7-carboxamide] were, in that order, 25 µM and 3.99 µM.
On the same counts, the results for `CN(CCN1CCn2c(c(Br)cc(C(=O)NCc3ccc(Cl)cc3)c2=O)C1=O)S(C)(=O)=O` [Example 122, 9-bromo-N-(4-chlorobenzyl)-2-(2-(N-methylmethylsulfonamido)ethyl)-1,6-dioxo-1,3,4,6-tetrahydro-2H-pyrido[1,2-a]pyrazine-7-carboxamide] are 5.05 µM and 0.35 µM.
`CS(=O)(=O)CCCN1CCn2c(c(Br)cc(C(=O)NCc3ccc(Cl)cc3)c2=O)C1=O` [Example 123, 9-bromo-N-(4-chlorobenzyl)-2-(3-(methylsulfonyl)propyl)-1,6-dioxo-1,3,4,6-tetrahydro-2H-pyrido[1,2-a]pyrazine-7-carboxamide]: the IC50 in assay [2] is 1.89 µM; in assay [3], 0.373 µM.
Turning to `CS(=O)(=O)CCCN1CCn2c(c(CF)cc(C(=O)NCc3ccc(Cl)cc3)c2=O)C1=O` [Example 142], the IC50 in assay [2] is 2.16 µM; in assay [3], 0.351 µM.
Consider `COC1(S(=O)(=O)C2(CN3CCn4c(ccc(C(=O)NCc5ccc(Cl)cc5)c4=O)C3=O)CC2)CC1` [Example 188], for which, in assay [1], the concentration for a half-maximal effect (EC50) is 0.0116 µM. This compound registered an IC50 in assay [3] of 0.0008 µM.

By EC50 is commonly meant the concentration needed to bring the measured effect to its halfway point. The IC50 is the concentration that gives 50% inhibition.
